Assay results published in US20110203018A1, “Use of Carboxamides on Cultivated Plants” (BASF SE, priority 2008, published 2011).

Legend:
Leptosphaeria maculans = assay: Field trial: Leptosphaeria maculans in oilseed rape (stem scoring, disease index); type: in vivo
oilseed rape = assay: Field trial: oilseed rape grain yield; type: in vivo
Method: Oilseed rape was grown in 2002 at the Verde in France. The variety Colosse was planted at a seeding rate of 3 kg/ha. Row spacing was 17 cm. Plot size was 30 m^2. […] The formulation was diluted in a total spray volume of 300 l/ha.
At maturity, the plants were harvested and the grain yield was measured (Tab. 4).

soybeans = assay: Field trial: soybean grain yield and thousand grain weight (TGW); type: in vivo; conditions: for Grain Yield (dt/ha) / TGW: soybeans, field, EC; for Grain Yield (dt/ha): Control 16.6; for TGW: Control 113.9
[1] = tested on: Asian Soybean Rust (Phakopsora pachyrhizi); assay: Field trial: efficacy against Asian Soybean Rust in soybeans (infected leaf area); conditions: for Efficacy against soybean rust (%): soybeans, field, EC, assessed 20 days after last treatment, infection in Control 95% infected leaf area
maize [2] = assay: Field trial: maize grain yield and thousand grain weight (TGW); type: in vivo
Method: The variety DKB 390 was planted at a seeding rate of 60,000 plants per ha. Row spacing was 80 cm. Plot size was 30 m^2. […] At maturity, the plants were harvested and the grain yield and thousand grain weight (TGW) were measured (Tab. 2).

[3] = tested on: common rust (Puccinia sorghi); assay: Field trial: efficacy against common rust in maize (infected leaf area); type: in vivo
Source text: The variety DKB 390 was planted at a seeding rate of 60,000 plants per ha. Row spacing was 80 cm. Plot size was 30 m^2.

maize [4] = assay: Field trial: green leaf retention in maize (green leaf area); type: in vivo
Source text: The variety DKB 390 was planted at a seeding rate of 60,000 plants per ha. Row spacing was 80 cm. Plot size was 30 m^2. […] Green leaf retention was estimated in treated and control plants by estimating the green leaf area 28 days after treatment in 10 randomly chosen plants per plot.

rice = assay: Field trial: rice grain yield; type: in vivo
Method: Imidazolinone tolerant rice ([…]) was grown in 2008 at Washington, 7033 Highway 103, LA, USA. […] Row spacing was 18 cm. Plot size was 27.5 m^2. […] At maturity, the plants were harvested and the grain yield was measured (Tab. 3).

Rhizoctonia solani = assay: Field trial: efficacy against Rhizoctonia solani in rice (infected leaf area, frequency of infection); type: in vivo
Method: Imidazolinone tolerant rice ([…]) was grown in 2008 at Washington, 7033 Highway 103, LA, USA. […] Row spacing was 18 cm. Plot size was 27.5 m^2. […] Infection with Rhizoctonia solani 77 days after treatment with COMPOUND 2 was assessed (Tab. 3) by estimating the infected leaf area and frequency of infection in 10 randomly chosen plants per plot.

[5] = herbicide tolerant oilseed rape variety
[6] = 30 g AI/ha applied twice (BBCH 55/61 and 65/71)
[7] = 50 g AI/ha applied twice (application time BBCH 19)

O=C(Nc1ccccc1-c1ccc(Cl)cc1)c1cccnc1Cl [BOSCALID, boscalid]
activity against Leptosphaeria maculans versus expected from combination of effects (Leptosphaeria maculans; herbicide tolerant (imidazolinone resistance) oilseed rape variety): increased
disease control, combination of treatment with herbicide tolerant variety (Leptosphaeria maculans; [5]): synergistic effects
LEPTMA disease index (Leptosphaeria maculans; oilseed rape Colosse, field, 50 g/ha, WG (Cantus), BBCH 16, 209 days after treatment, Control 3.17, infection rate in Control 49%): 1.71
activity against Leptosphaeria maculans in oilseed rape (Leptosphaeria maculans; oilseed rape field trial, Cantus WG 500 g/kg, 0.5 kg/ha, once, 209 days after treatment): good activity
grain yield, combination of treatment with herbicide tolerant variety (oilseed rape; [5]): synergistic effects
increase in grain yield versus expected from single effects (oilseed rape; [5]): bigger
Grain Yield (dt/ha) (oilseed rape; oilseed rape Colosse, field, 50 g/ha, WG (Cantus), BBCH 16, Control 33.9): 49.3 dt/ha
grain yield compared to the untreated control (oilseed rape; oilseed rape field trial): increase

Cn1cc(C(=O)Nc2ccccc2-c2cc(F)c(F)c(F)c2)c(C(F)F)n1 [COMPOUND 2, N-(3′,4′,5′-trifluorobiphenyl-2-yl)-3-difluoromethyl-1-methyl-1H-pyrazole-4-carboxamide]
grain weight of harvested grain versus the untreated (soybeans; soybean field trial): increased
grain yield compared to the untreated control (soybeans; soybean field trial): increase
Grain Yield (dt/ha) (soybeans; [6]): 21.6 dt/ha
TGW (soybeans; [6]): 143.5 g
Grain Yield (dt/ha) (soybeans; [7]): 22.9 dt/ha
TGW (soybeans; [7]): 144.1 g
grain yield, combination of treatment with transgenic variety (soybeans; transgenic soybean variety): synergistic effects
increase in grain yield and in grain weight versus expected from single effects (soybeans; transgenic soybean variety): much bigger
activity against Asian Soybean Rust ([1]; soybean field trial, EC 62.5 g/l, 0.48 l/ha and 0.8 l/ha, applied twice, 20 days after last treatment): good activity
Efficacy against soybean rust (%) [1, 6]: 34%
Efficacy against soybean rust (%) [1, 7]: 46%
activity against Asian Soybean Rust versus expected from single effects ([1]; transgenic glyphosate tolerant soybean variety): increased
disease control, combination of treatment with transgenic variety ([1]; transgenic soybean variety): synergistic effects
Grain Yield (dt/ha) (maize [2]; maize DKB 390, field, 50 g/ha, EC, BBCH 51/55, Control 49.2): 55.2 dt/ha
TGW (maize [2]; maize DKB 390, field, 50 g/ha, EC, BBCH 51/55, Control 325): 333 g
grain weight of harvested grain over the untreated control (maize [2]; maize field trial): increased
grain yield compared to the untreated control (maize [2]; maize field trial): increase
grain yield, combination of treatment with transgenic variety (maize [2]; transgenic maize variety): synergistic effects
increase in grain yield and in grain weight versus expected from single effects (maize [2]; transgenic maize variety): much bigger
Efficacy against rust (%) ([3]; maize DKB 390, field, 50 g/ha, EC, BBCH 51/55, 28 days after treatment, infection in Control 8.8% infected leaf area): 88.6%
activity against common rust in maize ([3]; maize field trial, EC 62.5 g/l, 0.8 l/ha, once, 28 days after treatment): good activity
activity against common rust versus expected from single effects ([3]; transgenic glyphosate tolerant and/or insect resistant maize varieties): increased
disease control, combination of treatment with transgenic variety ([3]; transgenic maize variety): synergistic effects
Green Leaf Area (%) (maize [4]; maize DKB 390, field, 50 g/ha, EC, BBCH 51/55, 28 days after treatment, Control 34): 40%
green leaf area compared to control plants (maize [4]; maize field trial, 28 days after treatment): increase
increase in green leaf tissue versus expected from combination of effects (maize [4]; transgenic maize plants): bigger
grain yield, combination of treatment with Imidazolinone tolerance trait (rice; CL 161 rice): synergistic effects
increase in grain yield compared with a conventional variety (rice; Clearfield variety (CL 161)): bigger
Grain Yield (dt/ha) (rice; Imidazolinone tolerant rice CL 161, field, 50 g/ha, EC, BBCH 32/34, Control 37.76): 54.28 dt/ha
grain yield compared to the untreated control (rice; rice field trial): increase
disease control, combination of treatment with Imidazolinone tolerance trait (Rhizoctonia solani; CL 161 rice): synergistic effects
Efficacy against Rhizctonia (%) Frequency (Rhizoctonia solani; Imidazolinone tolerant rice CL 161, field, 50 g/ha, EC, BBCH 32/34, 77 days after treatment): 45.6%
Efficacy against Rhizctonia (%) Infection (Rhizoctonia solani; Imidazolinone tolerant rice CL 161, field, 50 g/ha, EC, BBCH 32/34, 77 days after treatment, infection in Control 8% infected leaf area): 50%
activity against Rhizoctonia compared with a variety without the herbicide tolerance trait (Rhizoctonia solani; Imidazolinone tolerant rice variety (CL 161)): higher
activity against Rhizoctonia in rice (Rhizoctonia solani; rice field trial, EC 62.5 g/l, 0.8 l/ha, once, 77 days after treatment): active
